Assay results taken from patent US7390910B2, “Compounds for treating tumors” (priority 2003, dated 2008).
Where a SMILES comes first, the peptide text is derived from it. [ ]: non-standard residue; d: D form. The star is where a group is joined. NMePhe(β,β-Me2) = CN[C@H](C(=O)O)C(C)(C)c1ccccc1; Tle = CC(C)(C)[C@H](N)C(=O)O; NMeV = CN[C@H](C(=O)O)C(C)C; NHBn = c1ccc(CN*)cc1

How the values were obtained:
[1] = tested on: bovine microtubule-associated protein (MAP)-rich tubulin; assay type: biochemical; details: 0.3 uM
Method in brief: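 This in vitro polymerization assay used bovine tubulin rich in microtubule-associated proteins, prepared at 1.5 mg/ml in GPEM (PEM buffer containing 1 mM GTP) and cleared by a 12,000×g spin. Tubulin solution (100 μl/well) was dispensed onto duplicate 10 μl test samples. Control wells held 0.3% DMSO. A SpectraMax Plus reader recorded turbidity at 340 nm every minute over 60 min at 24° C.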

[2] = tested on: KBV1; test: cells; assay type: cell-based; details: for inhibition at 3 µM: KB-V1, 3000 nM; for IC50: 3 days, SRB
Description: (§1) Cell Survival Assay: Standard Pharmacological Test Procedure. […] Compounds are incubated with cells for 3 days.

[3] = tested on: KB85; test: cells; assay type: cell-based; details: for IC50: 3 days, SRB
Description: as §1

[4] = tested on: KB cells; test: cells; assay type: cell-based; details: for IC50: 3 days, SRB
Description: as §1

With `CN[C@H](C(=O)N[C@H](C(=O)N(C)[C@@H](/C=C(\C)C(=O)OCc1ccc(OCc2ccccc2)cc1)C(C)C)C(C)(C)C)C(C)(C)c1ccccc1` [Example 54, N,β,β-trimethyl-L-phenylalanyl-N^1-((1R,2E)-4-{[4-(benzyloxy)benzyl]oxy}-1-isopropyl-3-methyl-4-oxobut-2-enyl)-N^1,3-dimethyl-L-valinamide] the “Tubulin Polym. % inhibition at 0.3 uM” value [1] was 55%, the inhibition at 3 µM ([2]; Homo sapiens) was 8% and the IC50 ([3]; 72 h) was 846 nM. It also gave an IC50 ([4]; Homo sapiens, KB, 72 h) of 136 nM.
For `CN[C@H](C(=O)N[C@H](C(=O)N(C)[C@H](/C=C(\C)C(=O)N1CCC[C@H]1[C@H](OC)[C@@H](C)C(=O)N1C(=O)O[C@@H](c2ccccc2)[C@H]1C)C(C)C)C(C)(C)C)C(C)(C)C1CCCCC1` [Example 51, 3-cyclohexyl-N-methyl-L-valyl-N^1-[(1S,2E)-1-isopropyl-4-((2S)-2-{(1R,2R)-1-meyhoxy-2-methyl-3-[(4R,5S)-4-methyl-2-oxo-5-phenyl-1,3-oxazolidin-3-yl]-3-oxopropyl}pyrrolidin-1-yl)-3-methyl-4-oxobut-2-enyl]-N^1,3-dimethyl-L-valinamide], the “Tubulin Polym. % inhibition at 0.3 uM” value [1] was 82%, the IC50 [2] was 1770 nM and the IC50 [3] was 61 nM. The IC50 [4] was 22 nM.
`CN[C@H](C(=O)N[C@H](C(=O)N(C)[C@H](C(=O)N1CCC[C@H]1C(=O)OC)C(C)C)C(C)(C)C)C(C)(C)c1ccccc1` [Example 33, Methyl N,β,β-trimethyl-L-phenylalanyl-3-methyl-L-valyl-N-methyl-L-valyl-L-prolinate] (H-[NMePhe(β,β-Me2)][Tle][NMeV]P-OMe) was tested, and the “Tubulin Polym. % inhibition at 0.3 uM” value [1] was 19%, the IC50 ([2]; Homo sapiens, KB-V1, 72 h) was 1530 nM and the IC50 ([3]; 72 h) was 53 nM. It also gave an IC50 ([4]; Homo sapiens, KB, 72 h) of 18 nM.
“N,β,β-trimethyl-L-phenylalanyl-N^1-{(1S,2E)-4-[(2S)-2-(2-phenethoxycarbonyl)pyrrolidin-1-yl]-1-isopropyl-3-methyl-4-oxobut-2-enyl}-N^1,3-dimethyl-L-valinamid [Example 37]” was tested, and the “Tubulin Polym. % inhibition at 0.3 uM” value [1] was 86%, the IC50 [2] was 1640 nM and the IC50 [3] was 21 nM. The IC50 [4] was 6.4 nM.
With `CN[C@H](C(=O)N[C@H](C(=O)N(C)[C@H](/C=C(\C)P(=O)(O)O)C(C)C)C(C)(C)C)C(C)(C)c1ccccc1` [Example 72, N,β,β-trimethyl-L-phenylalanyl-N^1-[(1S,2E)-1-isopropyl-3-phosphonobut-2-enyl]-N^1,3-dimethyl-L-valinamide] the “Tubulin Polym. % inhibition at 0.3 uM” value [1] was 53%, the inhibition at 3 µM ([2]; Homo sapiens) was 4% and the inhibition at 3 µM ([3]; 3000 nM) was 0%. The inhibition at 3 µM ([4]; Homo sapiens, 72 h, 3000 nM) was 0%.
In the case of `CN[C@H](C(=O)N[C@H](C(=O)N(C)[C@H](/C=C(\C)C(=O)N1CCCC[C@H]1C(=O)O)C(C)C)C(C)(C)C)C(C)(C)c1ccccc1` [Example 50, N,β,β-trimethyl-L-phenylalanyl-N^1-{(1S,2E)-4-[(2S)-2-carboxypiperidin-1-yl]-1-isopropyl-3-methyl-4-oxobut-2-enyl}-N^1,3-dimethyl-L-valinamide], the “Tubulin Polym. % inhibition at 0.3 uM” value [1] is reported as 84(2) %, the inhibition at 3 µM ([2]; Homo sapiens) is reported as 9% and the IC50 ([3]; 72 h) is reported as 270 nM. The IC50 ([4]; Homo sapiens, KB, 72 h) was 64 nM.
With `CN[C@H](C(=O)N[C@H](C(=O)N(C)[C@H](/C=C(\C)CO)C(C)C)C(C)(C)C)C(C)(C)c1ccccc1` [Example 81] the “Tubulin Polym. % inhibition at 0.3 uM” value [1] was 71%, the IC50 [2] was 1590 nM and the IC50 [3] was 447 nM. It also gave an IC50 [4] of 454 nM.
With `CN[C@H](C(=O)N[C@H](C(=O)N(C)[C@H](/C=C(\C)C(=O)N1CCN(Cc2ccccc2)CC1)C(C)C)C(C)(C)C)C(C)(C)c1ccc(C)c(C)c1` [Example 12, N,β,β,3,4-Pentamethyl-L-phenylalanyl-N^1-[(1S,2E)-4-(4-benzylpiperazin-1-yl)-1-isopropyl-3-methyl-4-oxobut-2-enyl]-N^1,3-dimethyl-L-valinamide] the “Tubulin Polym. % inhibition at 0.3 uM” value [1] was 51%, the IC50 ([2]; Homo sapiens, KB-V1, 72 h) was 1330 nM and the IC50 ([3]; 72 h) was 65 nM. It also gave an IC50 ([4]; Homo sapiens, KB, 72 h) of 48 nM.
`CN[C@H](C(=O)N[C@H](C(=O)N(C)[C@H](/C=C(\C)C(=O)N1CCN(C)CC1)C(C)C)C(C)(C)C)C(C)(C)c1cccc(C)c1.O=C(O)C(F)(F)F` [Example 6, N,β,β,3-Tetramethyl-L-phenylalanyl-N^1-[(1S,2E)-1-isopropyl-3-methyl-4-(4-methylpiperazin-1-yl)-4-oxobut-2-enyl]-N^1,3-dimethyl-L-valinamide trifluoroacetic acid salt] was tested, and the “Tubulin Polym. % inhibition at 0.3 uM” value [1] was 64%, the inhibition at 3 µM ([2]; Homo sapiens) was 33% and the IC50 ([3]; 72 h) was 123 nM. It also gave an IC50 ([4]; Homo sapiens, KB, 72 h) of 64 nM.
With `CN[C@H](C(=O)N[C@H](C(=O)N(C)[C@H](/C=C(\C)C(=O)N1CCOCC1)C(C)C)C(C)(C)C)C(C)(C)c1ccc(C)c(C)c1` [Example 2, N,β,β,3,4-Pentamethyl-L-phenylalanyl-N^1-[(1S,2E)-1-isopropyl-3-methyl-4-morpholin-4-yl-4-oxobut-2-enyl]-N^1,3-dimethyl-L-valinamide] the “Tubulin Polym. % inhibition at 0.3 uM” value [1] was 37%, the IC50 ([2]; Homo sapiens, KB-V1, 72 h) was 162 nM and the IC50 ([3]; 72 h) was 62 nM. For the same compound, the IC50 ([4]; Homo sapiens, KB, 72 h) was 34 nM.
`CN[C@H](C(=O)N[C@H](C(=O)N(C)[C@H](C(=O)N1CCC[C@H]1C(=O)N1CCC[C@H]1C(=O)NCc1ccccc1)C(C)C)C(C)(C)C)C(C)(C)c1ccccc1` [Example 34, N,β,β-trimethyl-L-phenylalanyl-3-methyl-L-valyl-N-methyl-L-valyl-L-prolyl-N-benzyl-L-prolinamide] (H-[NMePhe(β,β-Me2)][Tle][NMeV]PP-NHBn) was tested, and the “Tubulin Polym. % inhibition at 0.3 uM” value [1] was 64%, the inhibition at 3 µM ([2]; Homo sapiens) was 5% and the IC50 ([2]; Homo sapiens, KB-V1, 72 h) was 1950 nM. It also gave an IC50 ([3]; 72 h) of 4.2 nM and an IC50 ([4]; Homo sapiens, KB, 72 h) of 0.25 nM.
In the case of `CN[C@H](C(=O)N[C@H](C(=O)N(C)[C@H](/C=C(\C)C(=O)N1CCC[C@H]1C(=O)OC)C(C)C)C(C)(C)C)C(C)(C)c1ccc(C)c(C)c1` [Example 17, N,β,β,3,4-Pentamethyl-L-phenylalanyl-N^1-{(1S,2E)-4-[(2S)-2-(methoxycarbonyl)pyrrolidin-1-yl]-1-isopropyl-3-methyl-4-oxobut-2-enyl}-N^1,3-dimethyl-L-valinamide], the “Tubulin Polym. % inhibition at 0.3 uM” value [1] is reported as 71%, the IC50 ([2]; Homo sapiens, KB-V1, 72 h) is reported as 363 nM and the IC50 ([3]; 72 h) is reported as 15 nM. The IC50 ([4]; Homo sapiens, KB, 72 h) was 1.9 nM.
`CN[C@H](C(=O)N[C@H](C(=O)N(C)[C@H](/C=C(\C)C(=O)N1CCC[C@H]1C(=O)N1CCC[C@H]1C(=O)NCc1ccccc1)C(C)C)C(C)(C)C)C(C)(C)c1cc(C)cc(C)c1` [Example 11, 1-{(2E,4S)-2,5-Dimethyl-4-[methyl(N,β,β,3,5-pentamethyl-L-phenylalanyl-3-methyl-L-valyl)amino]hex-2-enoyl}-L-prolyl-N-benzyl-L-prolinamide] was tested, and the “Tubulin Polym. % inhibition at 0.3 uM” value [1] was 41%, the inhibition at 3 µM ([2]; Homo sapiens) was 8% and the IC50 ([3]; 72 h) was 24 nM. It also gave an IC50 ([4]; Homo sapiens, KB, 72 h) of 0.56 nM.
`CN[C@H](C(=O)N[C@H](C(=O)N(C)[C@H](/C=C(\C)C(=O)N1CC=C[C@H]1C(=O)O)C(C)C)C(C)(C)C)C(C)(C)c1ccccc1` [Example 48, N,β,β-trimethyl-L-phenylalanyl-N^1-{(1S,2E)-4-[(2S)-2-carboxy-2,5-dihydro-1H-pyrrol-1-yl]-1-isopropyl-3-methyl-4-oxobut-2-enyl}-N^1,3-dimethyl-L-valinamide] was tested, and the “Tubulin Polym. % inhibition at 0.3 uM” value [1] was 91(2) %, the inhibition at 3 µM ([2]; Homo sapiens) was 15% and the IC50 ([3]; 72 h) was 184 nM. For the same compound, the IC50 ([4]; Homo sapiens, KB, 72 h) was 58 nM.
For `CN[C@@H](C(=O)N[C@H](C(=O)N(C)[C@H](/C=C(\C)C(=O)O)C(C)C)C(C)(C)C)C1(C)CCCc2ccccc21` (single isomer, unassigned) [Example 60], the “Tubulin Polym. % inhibition at 0.3 uM” value [1] was 94%, the IC50 ([2]; Homo sapiens, KB-V1, 72 h) was 427 nM and the IC50 ([3]; 72 h) was 17 nM. For the same compound, the IC50 ([4]; Homo sapiens, KB, 72 h) was 9.1 nM.
